Where two headings read alike, the source gives them in different places.
Tests used:
[1] = tested on: a variety of dicotyledonous and monocotyledonous plants; assay: Postemergence greenhouse herbicidal test; format: in vivo; details: for activity in herbicidal (biological) assays, relative to inhibitors 1-5: comparison within the series of inhibitors 1 to 5
Description: The herbicidal activity of the compounds was tested as described in the U.S. Pat. No. 5,635,449. […] In the tests, seedling plants are grown in jiffy flats for about two weeks. The test compounds are dispersed in 50/50 acetone/water mixtures containing 0.5% TWEEN®20, a polyoxyethylene sorbitan monolaurate surfactant of Atlas Chemical Industries, in sufficient quantities to provide the equivalent of about 1.0 kg to 8.0 kg per hectare of test compound when applied to the plants through a spray nozzle operating at 40 psi for a predetermined time. After spraying, the plants are placed on greenhouse benches and are cared for in the usual manner, commensurate with conventional greenhouse practices. From four to five weeks after treatment, the seedling plants are examined and rate according to the rating system set forth below.

[2] = target: T1, Salmonella typhimurium tryptophan synthase holoenzyme (α2β2), TSα reaction (Salmonella typhimurium, UniProt P00929); assay: Inhibition of tryptophan synthase by the TSα reaction, microtiter kinetic coupled enzyme assay; format: biochemical; details: for activity in enzyme inhibitory assays, relative to inhibitors 1-5: comparison within the series of inhibitors 1 to 5
T1 construct: made in house; host or cells: E. coli strain CB149pSTB7
Source text: Inhibitors of TS were identified by their ability to inhibit the production of glyceraldehyde-3-P by the TSα reaction of the Salmonella typhimurium holoenzyme (α2β2) in the presence of a limiting amount of indole-3-glycerolphosphate and an excess of serine
The assay was developed as a new microtiter plate kinetic enzyme assay based on the combined methods of Creighton (EurJBch 13:1-10, 1970) and Creighton and Yanofsky (JBC 241:980, 1966) with modifications. The rate of glyceraldehyde production was measured as the linear […] (spectrophotometric absorbance at 340 nm) in the presence of glyceraldehyde-3-phosphate dehydrogenase in a coupled enzyme assay.
The assay solution contained a test inhibitor compound, 50 mM Tris-Cl (pH 7.8), 6 mM sodium arsenate, 5 μg/ml pyridoxal phosphate, 0.5 mM DTT, 0.18M NaCl, 60 mM serine, 1.6 mM NAD+, 8 e.u./ml yeast glyceraldehyde-3-phosphate dehydrogenase (Sigma, Catalog #G2647; Kirschner et al., Eur J Bch, 1975, 60:513 and approximately 1.5 e.u. Salmonella TS. 100 μM IGP was added to start the reaction, which was run at 37° C. and using 300 μl per assay in a microtiter plate.
The substrate IGP was used at 1.5 to 2 times its Km concentration to enhance the likelihood of identifying weak inhibitors, binding at the substrate binding site. This approach to identifying enzyme inhibitors was novel, since an excess of all substrates, (at least 5-times the Km value of each), is conventionally used in the measurement of enzyme activity.
Potential inhibitors were evaluated by adding 100 μM inhibitor (equimolar to substrate IGP):or less, in a 1:1 dilution series down from 100 μM, until the inhibition measured was less than 15%. Reaction rates at Vmax were compared in the presence and absence of inhibitors.
In addition, some weaker inhibitors were identified following preincubation of the inhibitor with the TS assay mix for 24 hrs prior to the addition of IGP. The identifying weaker inhibitors is to aid in a quantitative structure activity relationship (QSAR) evaluation, or to identify new herbicidal inhibitor leads. The previously known inhibitor IPP was used as a standard in all tests, where the I50 for IPP was 1-2 uM.

[3] = tested on: Arabidopsis thaliana; assay: Herbicidal activity and tryptophan reversal on Arabidopsis grown on agar medium; format: in vivo; parameters: key: 0 - no effect; 9 - total kill; C - chlorotic seedlings 4-6 days after treatment
Description: In this experiment, TS inhibitors were tested on Arabidopsis thaliana grown Murashige minimal organics medium, (obtained from Life Technologies, Grand Island, N.Y.), containing 0.7% agar. Compounds were tested at different concentrations to assess their herbicidal activity.

[4] = target: T2, Arabidopsis TS enzyme (Arabidopsis thaliana, UniProt Q42529); assay: TSα assay with recombinant plant TSα and TSβ expressed in E. coli; format: biochemical; details: inhibitor 82 uM; pAC 758 (1.5 ug) + pAC 755 (3 ug)
T2 construct: GST (N, cleaved yes); made in house; host or cells: E. coli DH5α (pGEX-2T constructs)
T2 sequence (Q42529 with tags, fused parts or gaps): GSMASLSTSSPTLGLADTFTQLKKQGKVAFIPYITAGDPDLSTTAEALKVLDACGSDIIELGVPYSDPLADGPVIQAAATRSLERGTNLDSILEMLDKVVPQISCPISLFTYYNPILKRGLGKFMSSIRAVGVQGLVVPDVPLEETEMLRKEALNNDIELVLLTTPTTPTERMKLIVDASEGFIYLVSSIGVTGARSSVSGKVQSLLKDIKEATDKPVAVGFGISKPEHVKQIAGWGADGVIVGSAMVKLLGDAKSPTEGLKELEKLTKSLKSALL
T2 sequence (P14671 with tags, fused parts or gaps partner): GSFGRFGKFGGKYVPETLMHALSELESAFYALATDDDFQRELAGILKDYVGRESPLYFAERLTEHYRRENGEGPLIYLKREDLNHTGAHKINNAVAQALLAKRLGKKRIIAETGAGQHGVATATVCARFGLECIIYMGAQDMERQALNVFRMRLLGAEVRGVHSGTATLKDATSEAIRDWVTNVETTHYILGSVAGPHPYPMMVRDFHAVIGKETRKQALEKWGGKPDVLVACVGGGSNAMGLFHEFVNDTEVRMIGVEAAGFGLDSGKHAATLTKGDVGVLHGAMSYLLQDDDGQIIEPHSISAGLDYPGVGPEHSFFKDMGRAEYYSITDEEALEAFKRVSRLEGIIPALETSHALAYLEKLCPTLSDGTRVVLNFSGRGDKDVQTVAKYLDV
Description: The plant TS proteins were expressed as fusion proteins with glutathione transferase (GST) to facilitate purification. After purification, the GST protein was cleaved off with thrombin as described above before the plant TS assays were performed. After thrombin cleavage, both TSα and TSβ-subunit proteins retained a Gly-Ser residue on the N-terminal of the protein in addition to the TS sequence. […]
The TSα enzyme assay was conducted as described in Example 3 for Salmonella TSα.
Specifically, phenylthiophosphonic acid compounds were used. The TSα assay conditions were as described for Salmonella TSα in Example 3 except that recombinant plant proteins were used instead of the Salmonella enzyme.

[5] = tested on: Synechocystis PCC 6803; assay: End-product reversal in Synechocystis, culture growth in liquid medium; format: cell-based; details: for Culture density (%) / Culture density as A420: four days
Source text: Synechocystis is a unicellular green organism that is actually a photosynthetic bacterium, with a photosynthetic system very similar to that of higher plant chloroplasts. Culture growth of Synechocystis could be inhibited by a compound of the present invention, and the growth inhibition could be prevented in the presence of tryptophan.

[6] = I50 TS, TSα reaction of Salmonella holoenzyme
[7] = post emergence greenhouse test, 4 kg/ha
[8] = I50 TS, TSα reaction of the highly purified Salmonella typhimiurium holoenzyme
[9] = inhibitor 62 μM, +tryptophan 31 μM
[10] = inhibitor 62 μM, +tryptophan 62 μM
[11] = inhibitor 125 μM, +tryptophan 31 μM
[12] = inhibitor 125 μM, +tryptophan 62 μM
[13] = inhibitor 125 μM, no tryptophan

T1 sequence (P00929 whole entry): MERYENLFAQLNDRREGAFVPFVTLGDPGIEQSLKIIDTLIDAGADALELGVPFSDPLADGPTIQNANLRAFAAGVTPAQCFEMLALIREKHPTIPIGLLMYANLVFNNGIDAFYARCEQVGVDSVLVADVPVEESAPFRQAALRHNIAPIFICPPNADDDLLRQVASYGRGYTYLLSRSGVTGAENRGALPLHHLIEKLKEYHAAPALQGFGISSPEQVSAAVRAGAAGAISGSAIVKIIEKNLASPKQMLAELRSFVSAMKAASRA
T1 sequence (P0A2K1 2-397, further chain): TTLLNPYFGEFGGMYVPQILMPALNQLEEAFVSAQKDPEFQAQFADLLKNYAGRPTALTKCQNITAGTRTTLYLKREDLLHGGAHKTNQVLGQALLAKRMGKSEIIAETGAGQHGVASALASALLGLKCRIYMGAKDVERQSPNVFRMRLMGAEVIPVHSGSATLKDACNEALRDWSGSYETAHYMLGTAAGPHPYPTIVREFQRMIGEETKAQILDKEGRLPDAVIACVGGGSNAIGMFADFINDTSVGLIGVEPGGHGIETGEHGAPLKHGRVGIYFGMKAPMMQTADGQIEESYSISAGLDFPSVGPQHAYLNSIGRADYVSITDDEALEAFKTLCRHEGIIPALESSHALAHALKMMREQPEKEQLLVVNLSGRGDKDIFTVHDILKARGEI

CC(C)N.CC(C)N.O=P(O)(O)C=CCCSc1ccccc1O [Inhibitor 1, 4-(2-hydroxyphenylthio)-1-butenylphosphonic acid, 1:2 salt with isopropylamine]
activity in herbicidal (biological) assays, relative to inhibitors 1-5 [1]: highest activity
activity in enzyme inhibitory assays, relative to inhibitors 1-5 [2]: highest activity

O=P(O)(O)C=CCCSc1ccccc1O [Compound 28, {4-[(o-hydroxyphenyl)thio]-1-butenyl}phosphonic acid]
herbicidal rating ([3]; herbicide 7.8 mM + 100 μM Trp): 0
herbicidal rating ([3]; herbicide 7.8 mM, no Trp): 5C
herbicidal rating ([3]; herbicide 16 mM + 100 μM Trp): 0
herbicidal rating ([3]; herbicide 16 mM, no Trp): 5C
herbicidal rating ([3]; herbicide 31 mM + 100 μM Trp): 0
herbicidal rating ([3]; herbicide 31 mM, no Trp): 5C
herbicidal rating ([3]; herbicide 63 mM + 100 μM Trp): 0
herbicidal rating ([3]; herbicide 63 mM, no Trp): 6C
herbicidal rating ([3]; herbicide 125 mM + 100 μM Trp): 0
herbicidal rating ([3]; herbicide 125 mM, no Trp): 6C
herbicidal rating ([3]; herbicide 250 mM + 100 μM Trp): 0
herbicidal rating ([3]; herbicide 250 mM, no Trp): 6C
herbicidal rating ([3]; herbicide 500 mM + 100 μM Trp): 0
herbicidal rating ([3]; herbicide 500 mM, no Trp): 6C
herbicidal rating ([3]; herbicide 1000 mM + 100 μM Trp): 0
herbicidal rating ([3]; herbicide 1000 mM, no Trp): 6C
Herbicidal Activity ([1]; Postemergence application): ++++ (++++ = 80-100% injury to more than three species)
IC50 [2, 6]: 570 nM

O=P(O)(O)CCCc1c[nH]c2ccccc12 [Compound 7a]
Herbicidal Activity [1, 7]: inactive
IC50 [2, 8]: 125000 nM

O=P(O)(O)C=CCCSc1cc(Br)ccc1O [Compound 31, Phosphonic acid, {4-[(5-bromo-2-hydroxyphenyl)thio]-1-butenyl}-]
Herbicidal Activity ([1]; Postemergence application): + (+ = 30-80% injury to one species)
IC50 [2, 6]: 260 nM
TSα activity, % of control [4]: 16.1 % of control
TSα activity, relative Vmax [4]: 0.238 mOD/min

O=P(O)(O)CCCCc1c[nH]c2ccccc12 [Compound 7b, Phosphonic acid, [4-(indol-3-yl)butyl]-]
Herbicidal Activity [1, 7]: weak (weak activity = maximum 20-30% injury on any species)
IC50 [2, 8]: 20000 nM
IC50 ([2]; TS inhibition I50, TSα reaction, Salmonella holoenzyme, 30 min at 37° C., 100 μM IGP): 20000 nM

Nc1ccccc1SCCCCP(=O)(O)O [Compound 13, 4-(2-aminophenylthio)-butylphosphonic acid]
Herbicidal Activity ([1]; Postemergence application): + (+ = 30-80% injury to one species)
activity in herbicidal (biological) assays, relative to inhibitors 1-5 [1]: weakest activity
IC50 ([2]; TSα reaction of Salmonella holoenzyme, read-out: I50 TS): 400 nM
activity in enzyme inhibitory assays, relative to inhibitors 1-5 [2]: weakest activity

O=C(Oc1ccccc1SCCCCP(=O)(O)O)c1ccccc1 [Phosphonic acid, {4-[(2-hydroxyphenyl)thio]butyl}-, benzoate (ester)]
effect of tryptophan on the growth inhibitory effects [5]: completely reversed
Culture density (%) [5, 9]: 136%
Culture density as A420 [5, 9]: 0.726
Culture density (%) [5, 10]: 132%
Culture density as A420 [5, 10]: 0.704
Culture density (%) ([5]; inhibitor 62 μM, no tryptophan): 84%
Culture density as A420 ([5]; inhibitor 62 μM, no tryptophan): 0.449
Culture density (%) [5, 11]: 116%
Culture density as A420 [5, 11]: 0.622
Culture density (%) [5, 12]: 102%
Culture density as A420 [5, 12]: 0.544
Culture density (%) [5, 13]: 7%
Culture density as A420 [5, 13]: 0.040
TSα activity, % of control [4]: 2.7 % of control
TSα activity, relative Vmax [4]: 0.168 mOD/min

O=P(O)(O)CCCC[S+]([O-])c1ccccc1O (stereo not shown) [Compound 32, {4-[(o-hydroxyphenyl)sulfinyl]butyl}phosphonic acid]
Herbicidal Activity ([1]; Postemergence application): +++ (+++ = 80-100% injury to two species)
IC50 [2, 6]: 440 nM
TSα activity, % of control [4]: 1.5 % of control
TSα activity, relative Vmax [4]: 0.095 mOD/min

— patent US20050050594A1, “Tryptophan synthase as a site of herbicide action” (priority 1999, published 2005)
